{"source": "patent US20090247624A1", "about": "“FORMULATIONS OF RADIOPROTECTIVE ALPHA BETA UNSATURATED ARYL SULFONES” (Onconova Therapeutics Inc., priority 2006, published 2009)", "key": {"[1]": {"experiment": "Saturated solubility of ON.1210.Na in different solvent systems", "format": "physicochemical", "conditions": "for solubility at 24 h: 24 hours of equilibration; for solubility at 48 h: 48 hours of equilibration"}, "[2]": {"experiment": "Octanol:water partition coefficient", "format": "physicochemical", "procedure": "(§1) A stability indicating HPLC assay is used during the preformulation studies. Preformulation studies include determination of microscopic and macroscopic properties, partition coefficient, pKa, pH-solubility, pH-stability, solid-state characterization and solid-state stability. XRD and thermal analyses re used to characterize the solid and solid-state stability. The solid-state stability as well as the pH stability of the drug is carried out at 75° C."}, "[3]": {"experiment": "pH-solubility study (equilibrium solubility, pKa)", "format": "physicochemical", "conditions": "for solubility thermodynamic: aqueous solution (buffer not named), thermodynamic from solid", "procedure": "as §1"}, "[4]": {"experiment": "pH-stability study under accelerated conditions", "format": "physicochemical", "procedure": "as §1"}, "[5]": {"experiment": "Solid-state stability of ON.1210.Na at 75° C.", "format": "physicochemical", "procedure": "as §1\nThe stability of ON.1210.Na in the solid state is determined by exposing the drug at 75° C. over a prolonged time. The sample is crimped in a 10 mL injection vial and kept at the above temperature. The sample is collected after 15 days and one month and reconstituted with diluting solution and its concentration is determined by HPLC. Appearance of any additional peak in the chromatogram is also noted. A control sample is represented by ON.1210.Na not exposed to 75° C. and reconstituted to a known concentration with diluting solution."}, "[6]": {"experiment": "Stability of solid drug after autoclaving (HPLC)", "format": "physicochemical", "conditions": "autoclaved in a crimped vial", "procedure": "A solid drug sample (ON1210), after autoclaving in a crimped vial, is also evaluated for any degradation using the developed HPLC method. The sample, after autoclaving, is used to make a standard solution of 400 μg/mL and injected onto HPLC."}, "[7]": {"experiment": "Half life by route of administration and as suspension", "format": "in vivo", "procedure": "When, ON.1210.Na, for example, is administered as a suspension described herein the half life of the drug is on the order of 30-40 hours depending on the specific formulation and its viscosity. This dramatic increase in half-life translates to prolonged exposure to drug over a period of 72 hours and beyond. This increase is possible because of an apparent low dissolution rate of drug from the site of administration."}, "[8]": {"experiment": "General physical properties: solubility in water", "format": "physicochemical", "description": "1210.Na. The example compound is a sodium salt of (E)-4-Carboxystyryl-4-chlorobenzylsulfone."}}}
{"compound": "O=C([O-])c1ccc(/C=C/S(=O)(=O)Cc2ccc(Cl)cc2)cc1.[Na+]", "note": "[ON.1210.Na, (E)-4-Carboxystyryl-4-chlorobenzylsulfone, Sodium Salt]", "values": [{"measurement": "solubility", "setting": "[1]; 0.25% Tween 80 in phosphate buffer, pH 8.45, aqueous with cosolvent or surfactant or cyclodextrin", "result": 9.5, "unit": "mg/mL"}, {"measurement": "solubility", "setting": "[1]; 0.25% tween 80 in water, pH 8.87, aqueous with cosolvent or surfactant or cyclodextrin", "result": 10.5, "unit": "mg/mL"}, {"measurement": "solubility", "setting": "[1]; 0.5% Tween 80 in phosphate buffer, pH 8.41, aqueous with cosolvent or surfactant or cyclodextrin", "result": 9.8, "unit": "mg/mL"}, {"measurement": "solubility", "setting": "[1]; 0.5% tween 80 in water, pH 8.74, aqueous with cosolvent or surfactant or cyclodextrin", "result": 10.3, "unit": "mg/mL"}, {"measurement": "solubility", "setting": "[1]; 1% (w/v) Povidone K 90 in water, pH 8.69, aqueous with cosolvent or surfactant or cyclodextrin", "result": 209, "unit": "mg/mL"}, {"measurement": "solubility", "setting": "[1]; 1% PVP C 15, pH 8.86, aqueous with cosolvent or surfactant or cyclodextrin, thermodynamic from solid", "result": 26.9, "unit": "mg/mL"}, {"measurement": "solubility", "setting": "[1]; 1% PVP C 30, pH 8.02, aqueous with cosolvent or surfactant or cyclodextrin, thermodynamic from solid", "result": 25.1, "unit": "mg/mL"}, {"measurement": "solubility", "setting": "[1]; 1% Tween 80 in phosphate buffer, pH 8.45, aqueous with cosolvent or surfactant or cyclodextrin", "result": 8.9, "unit": "mg/mL"}, {"measurement": "solubility", "setting": "[1]; 1% tween 80 in water, pH 8.82, aqueous with cosolvent or surfactant or cyclodextrin", "result": 10.1, "unit": "mg/mL"}, {"measurement": "solubility", "setting": "[1]; 2% PVP C 15, pH 8.69, aqueous with cosolvent or surfactant or cyclodextrin, thermodynamic from solid", "result": 26.9, "unit": "mg/mL"}, {"measurement": "solubility", "setting": "[1]; 2% Tween 80 in phosphate buffer, pH 8.39, aqueous with cosolvent or surfactant or cyclodextrin", "result": 9.7, "unit": "mg/mL"}, {"measurement": "solubility", "setting": "[1]; 2% tween 80 in water, pH 8.78, aqueous with cosolvent or surfactant or cyclodextrin", "result": 9, "unit": "mg/mL"}, {"measurement": "solubility", "setting": "[1]; 5% (w/v) Povidone K 90 in Water, pH 8.35, aqueous with cosolvent or surfactant or cyclodextrin", "result": 152, "unit": "mg/mL"}, {"measurement": "solubility", "setting": "[1]; 10% PEG400:water, pH 8.24, aqueous with cosolvent or surfactant or cyclodextrin, thermodynamic from solid", "result": 36, "unit": "mg/mL"}, {"measurement": "solubility", "setting": "[1]; 20% HPCD:20% PEG 400:60% water, pH 8.2, aqueous with cosolvent or surfactant or cyclodextrin", "result": 53.6, "unit": "mg/mL"}, {"measurement": "solubility", "setting": "[1]; 25% PEG400:water, pH 8.01, aqueous with cosolvent or surfactant or cyclodextrin, thermodynamic from solid", "result": 39, "unit": "mg/mL"}, {"measurement": "solubility", "setting": "[1]; 40% HPCD, pH 7.86, aqueous with cosolvent or surfactant or cyclodextrin", "result": 109, "unit": "mg/mL"}, {"measurement": "solubility", "setting": "[1]; 50% PEG400:Buffer (0.01M), pH 8.2, aqueous with cosolvent or surfactant or cyclodextrin", "result": 20.8, "unit": "mg/mL"}, {"measurement": "solubility", "setting": "[1]; 50% PEG400:Buffer (0.07M), pH 8.2, aqueous with cosolvent or surfactant or cyclodextrin", "result": 23.4, "unit": "mg/mL"}, {"measurement": "solubility", "setting": "[1]; 50% PEG400:water, pH 7.53, aqueous with cosolvent or surfactant or cyclodextrin", "result": 40, "unit": "mg/mL"}, {"measurement": "solubility", "setting": "[1]; 50:50 PEG400:ethanol, pH 8.46, organic solvent or mixture", "result": 37, "unit": "mg/mL"}, {"measurement": "solubility", "setting": "[1]; 100% ethanol, pH 7.94, organic solvent or mixture", "result": 0.9, "unit": "mg/mL"}, {"measurement": "solubility", "setting": "[1]; DMA:WATER:Ethanol (1:1:1), aqueous with cosolvent or surfactant or cyclodextrin", "result": 46.4, "unit": "mg/mL"}, {"measurement": "solubility", "setting": "[1]; NN-Dimethyl Acetamide:Water:PEG 400 (1:2:2), pH 7.9, aqueous with cosolvent or surfactant or cyclodextrin", "result": 66.2, "unit": "mg/mL"}, {"measurement": "solubility", "setting": "[1]; PEG300:ETH (70:30), pH 8.99, organic solvent or mixture", "result": 48.3, "unit": "mg/mL"}, {"measurement": "solubility", "setting": "[1]; PEG 300:water (50:50), pH 4.5, aqueous with cosolvent or surfactant or cyclodextrin", "result": 30.6, "unit": "mg/mL"}, {"measurement": "solubility", "setting": "[1]; PEG400:Benzyl alcohol (50:50), pH 8.19, organic solvent or mixture", "result": 51.6, "unit": "mg/mL"}, {"measurement": "solubility", "setting": "[1]; PEG400:Ethanol 70:30, organic solvent or mixture", "result": 55.5, "unit": "mg/mL"}, {"measurement": "solubility", "setting": "[1]; Propylene Glycol, organic solvent or mixture", "result": 44, "unit": "mg/mL"}, {"measurement": "solubility", "setting": "[1]; Propylene glycol:water (50:50), pH 8.53, aqueous with cosolvent or surfactant or cyclodextrin", "result": 41.6, "unit": "mg/mL"}, {"measurement": "solubility at 24 h", "setting": "[1]; aqueous with cosolvent or surfactant or cyclodextrin, thermodynamic from solid, 10% cyclodextran", "result": 46, "unit": "mg/mL"}, {"measurement": "solubility at 24 h", "setting": "[1]; aqueous with cosolvent or surfactant or cyclodextrin, thermodynamic from solid, 20% cyclodextran", "result": 62, "unit": "mg/mL"}, {"measurement": "solubility", "setting": "[1]; pH 8.21, organic solvent or mixture, PEG300 (IP10 g/kg)", "result": 52, "unit": "mg/mL"}, {"measurement": "solubility at 24 h", "setting": "[1]; pH 8.32, aqueous with cosolvent or surfactant or cyclodextrin, thermodynamic from solid, 5% cyclodextran", "result": 39, "unit": "mg/mL"}, {"measurement": "solubility", "setting": "[1]; pH 8.34, organic solvent or mixture, 100% PEG 400 (12 g/kg)", "result": 26, "unit": "mg/mL"}, {"measurement": "solubility at 48 h", "setting": "[1]; pH 8.35, aqueous with cosolvent or surfactant or cyclodextrin, thermodynamic from solid, 20% cyclodextran", "result": 58, "unit": "mg/mL"}, {"measurement": "solubility at 48 h", "setting": "[1]; pH 8.41, aqueous with cosolvent or surfactant or cyclodextrin, thermodynamic from solid, 10% cyclodextran", "result": 41, "unit": "mg/mL"}, {"measurement": "solubility at 48 h", "setting": "[1]; pH 8.52, aqueous with cosolvent or surfactant or cyclodextrin, thermodynamic from solid, 5% cyclodextran", "result": 32, "unit": "mg/mL"}, {"measurement": "solubility", "setting": "[1]; water, pH 8.4, water", "result": 11.8, "unit": "mg/mL"}, {"measurement": "octanol:water partition coefficient", "setting": "[2]", "result": "1.28-2.87"}, {"measurement": "solubility thermodynamic", "setting": "[3]; aqueous buffer, pH 4.0", "result": 0.000154, "unit": "mg/mL"}, {"measurement": "solubility thermodynamic", "setting": "[3]; aqueous buffer, pH 5.0", "result": 0.0379, "unit": "mg/mL"}, {"measurement": "solubility thermodynamic", "setting": "[3]; aqueous buffer, pH 6.0", "result": 0.715, "unit": "mg/mL"}, {"measurement": "solubility thermodynamic", "setting": "[3]; aqueous buffer, pH 8.0", "result": 16.8, "unit": "mg/mL"}, {"measurement": "solubility thermodynamic", "setting": "[3]; aqueous buffer, pH 9.0", "result": 23.3, "unit": "mg/mL"}, {"measurement": "solubility thermodynamic", "setting": "[3]; pH 7.4, aqueous buffer", "result": 11.1, "unit": "mg/mL"}, {"measurement": "pKa", "setting": "[3]; calculated from pH-solubility studies", "result": "2.85 ± 0.6"}, {"measurement": "pH-stability profile", "setting": "[4]; 75° C., Sodium Salt", "result": "better stability at neutral and biological pH but degradation is rapid under acidic condition"}, {"measurement": "stability in aqueous environment", "setting": "[4]; biological pH", "result": "quite stable in an aqueous environment at biological pH"}, {"measurement": "degradation rate order", "setting": "[4]; pH-stability study, Sodium Salt", "result": "pseudo-first-order rate"}, {"measurement": "accelerated solid-state stability of bulk drug substance", "setting": "[5]", "result": "no evidence of degradation"}, {"measurement": "stability of bulk solid drug", "setting": "[6]", "result": "stable under the autoclaving conditions"}, {"measurement": "half-life", "setting": "[7]; in vivo, administered as a suspension", "result": "30 to 40", "unit": "h"}, {"measurement": "half life", "setting": "[7]; intramuscular in contrast to intravenous", "result": "increases significantly"}, {"measurement": "half life", "setting": "[7]; subcutaneous administration, compared with intramuscular", "result": "increases even further"}, {"measurement": "solubility", "setting": "[8]", "result": "8 to 10", "unit": "mg/mL"}]}
